Source: paper PMC12728982, “Multichiral Half-Sandwich Ru(II) and Os(II) Anticancer Complexes Containing a Glutathione Synthesis Inhibitor” (Organometallics, 2025)

How the values were obtained:
[1] = Aqueous stability / hydrolysis monitored by 1H NMR; assay type: physicochemical; conditions: 3:7 v/v methanol-d4:D2O, 310 K, 1H NMR
[2] = test system: A549 lung carcinoma cells; experiment: Antiproliferative activity, SRB assay; assay type: cell-based, human; conditions: A549; SRB assay, 24 h treatment, 72 h recovery
Description: (§1) The antiproliferative activity against human A549 lung, IGROV-1 ovarian, and HeLa cervical cancer cell lines and MRC5 normal lung fibroblasts was determined by the sulforhodamine B (SRB) assay. […] IGROV-1 is known to be cisplatin-sensitive and subject to hypermutation.
(§2) 2.8 Mammalian cell culture
(§3) The human ovarian cancer cell line, IGROV-1; the human cervical cancer cell line, HeLa; the human […]; and the human non-cancerous lung fibroblast cell line, MRC5 were cultured in DMEM supplemented with 10% FBS and 100 units/mL of penicillin and 100 µg/mL of streptomycin (1x pen/strep). All cell lines were incubated at 310 K with 5% CO2 and 95% humidity for routine maintenance and during drug treatment.
(§4) 2.9 Sulforhodamine (SRB) cytotoxicity assay
(§5) Cells were seeded at 5 × 10^3 cells per well and incubated at 310 K for 48 h. Stock solutions (200 µM) of the complexes were prepared by dissolving the compound in 5% (v/v) DMSO followed by dilution with DMEM and serial dilutions with DMEM were prepared (0.1 µM-200 The cells were exposed to the drug for 24 h. The drug was then removed, and cells were allowed to recover for 72 h, in drug-free media. Cell viability was then determined by the SRB colorimetric assay. The solubilised dye absorbance was analysed on a microplate reader (Thermo Scientific Multiskan FC with Scanit software 4.1) at 470 nm. Data were normalized using Microsoft Excel, and dose-response curves fitted using Origin 2016. The IC50 values

[3] = test system: IGROV-1 ovarian carcinoma cells; experiment: Antiproliferative activity, SRB assay; assay type: cell-based, human; conditions: for IC50: IGROV-1, SRB assay, 24 h treatment, 72 h recovery
Description: as §1, §2, §3, §4, §5

[4] = test system: MRC-5 normal lung fibroblasts; experiment: Antiproliferative activity, SRB assay; assay type: cell-based, human; conditions: for IC50: MRC-5, SRB assay, 24 h treatment, 72 h recovery
Description: as §1, §2, §3, §4, §5

[5] = test system: HeLa cervical adenocarcinoma cells; experiment: Antiproliferative activity, SRB assay; assay type: cell-based, human; conditions: SRB assay, 24 h treatment, 72 h recovery
Description: as §1, §2, §3, §4
as §5, with “µM-200 µM).” for “µM-200”

[6] = test system: IGROV-1 human ovarian cancer cells; experiment: Cell cycle arrest by flow cytometry (PI); assay type: cell-based; conditions: 24 h treatment; for Progression to G2/M: IGROV-1, 50 or 100 μM
Description: 2 Effect of Os/Ru-LBSO and glycine complexes at 50 or 100 μM on the phases of the cell cycle of IGROV-1 human ovarian cancer cells compared with untreated (control) cells. Percentage of cells in G1 (black bar, cell growth), S (gray, DNA synthesis), G2/M, (white, growth/mitosis) as determined by flow cytometry after 24 h treatment with complexes. […] Standard deviations calculated for N = 3 *p-value <0.05 comparing to untreated sample.
as §2
as §3, with “treatment. […]” for “treatment.”
IGROV-1 cells (1 x 10^6 cells per well) were seeded in a 6-well plate and incubated for 24 h at 310 K. Stock solutions (200 µM) of the complexes were prepared by dissolving the compound in 5% (v/v) DMSO followed by dilution with DMEM and then diluted to desired concentrations. All complexes (50 µM and 100 µM) were added to the wells and incubated for 24 h. Cell pellets were collected using 0.25% trypsin and centrifuged (500 x g, 5 mins at 4 °C). Then washed in PBS and fixed with 100% ice-cold ethanol for 20 min on ice. The ethanol […]
was aspirated, cells washed in ice-cold PBS and then stained with 0.2 mg/mL RNase, 0.05 mg/mL propidium iodide (PI) in PBS for 25 min in the dark and on ice. Excess dye was removed, and cells were re-suspended in PBS. Samples were analysed by flow cytometry using the BD

[7] = test system: intracellular GSH in IGROV-1 cells; experiment: Glutathione colorimetric detection assay; assay type: cell-based, human; conditions: IGROV-1, 50 μM, 24 h
Description: This lowering was not observed for Ru-LBSO which is not active in this cell line. Other papers have shown a similar result by including L-BSO as an additional agent, therefore showing L-BSO remains inhibitory.
Once the agarose had set , the slides were submerged in alkaline lysis solution (1.3 M NaCl, 100 mM Na2EDTA, 0.1% sodium lauryl sarcosinate, 0.26 M NaOH pH > 13) and incubated overnight at 277 K in the dark. The following day the slides were rinsed for 20 min three times in the electrophoresis solution ([…] NaOH, 2mM Na 2EDTA pH 12.3). The slides were then placed into the electrophoresis tank with fresh electrophoresis buffer, 1 -2 mm above the slides. Electrophoresis was run at 18.3 V for 25 min. Once electrophoresis was complete, slides were rinsed in distilled water and placed in 2.5 µg/mL PI for 20 min. After staining, cells were rinsed in distilled water to remove excess stain. Twenty comet images per sample were taken by confocal microscopy and analysed by OpenComet. 10
1 x 10^6 IGROV-1 cells were seeded in a 6-well plate and incubated for 24 h at 310 K. All complexes (50 µM and 100 µM) were added to the wells and incubated for 24 h. […]
Percentage of IGROV -1 cancer cells in non -apoptotic, apoptotic (early and late) or necrotic phases determined by flow cytometry after 24 h treatment with Os/Ru L -BSO and glycine complexes. […] Standard deviations calculated for N=3. […]

[8] = test system: IGROV-1 cells; experiment: Comet assay (DNA damage in single cells); assay type: cell-based, human; conditions: IGROV-1, 24 h; 100 μM for Cisplatin and Os-Gly
Description: Comet assays were carried out to determine whether the complexes caused DNA damage in single cells. […] Cisplatin DNA-adducts have been shown previously to inhibit DNA migration through electrophoresis presenting as less tail movement. […] Excess dye was removed, and cells were re-suspended in PBS. Samples were analysed by flow cytometry using the BD FACSMelodyTM Cell Sorter (R653880001) and data analysis on FlowJoTM v10 Software (BD Life Sciences).9 2.11 Apoptosis IGROV-1 cells (1 x 106) were seeded in a 6-well plate and incubated for 24 h at 310 K. Stock solutions (200 μM) of the complexes were prepared by dissolving the compound in 5% (v/v) DMSO followed by dilution with DMEM and then diluted to desired concentrations. All complexes (50 μM and 100 μM) were added to the wells and incubated for 24 h. Cell pellets were collected using 0.25% trypsin and centrifuged (500 x g, 5 mins at 277 K). Cell pellets were washed with PBS and then stained with the commercial Apoptosis Detection Kit-FITC Annexin V and PI (BioLegend; San Diego, USA), as per manufacturer's instructions. Briefly, a staining solution of FITC Annexin V (1 unit/100 μL) diluted 1 in 100 and 1 μg/mL PI was added to the cells (30 min, room temperature). Excess dye was removed, and cells were re-suspended in PBS. Samples were analysed by flow cytometry using the BD FACSMelodyTM Cell Sorter (R653880001) and data analysis on FlowJoTM v10 Software (BD Life Sciences).9 2.12 Comet assay IGROV-1 cells (8×10^5 cells per well) were seeded into 6-well plates and incubated for 24 h. Test compounds (50 μM and 100 μM) were added to the wells and incubated at 3 10 K for 24 h. Cells were enzymatically detached using trypsin and cell concentration adjusted to 2×10^4 cells /mL in ice-cold PBS. 0.4 mL of cell suspension was added to 1.2 mL of 1% low melting point agarose in H 2O, then immediately added to microscope slides pre -coated in 1% agarose. […] Twenty comet images per sample were taken by confocal microscopy and analysed by OpenComet. […]

Q: Which Time to hydrolysis [1] does the source give for [(p-cymene)Ru(L-BSO)Cl] [Ru-LBSO] here?
A: ≤ 15 min

Q: And the IC50 [2]?
A: > 200 µM

Q: What about the “Activity against IGROV-1” value ([3]; IGROV-1, SRB) of the same compound?
A: not active

Q: And the IC50 [3]?
A: 108 ± 8 µM

Q: What about the “Activity toward normal lung cells” value ([4]; MRC-5, SRB) of the same compound?
A: some activity

Q: What about the IC50 [4] of the same compound?
A: 4.3 ± 0.7 µM

Q: And the IC50 [5]?
A: > 200 µM

Q: And the “G1 arrest (percentage of cells in G1)” value ([6]; IGROV-1, 100 μM, vs untreated)?
A: significantly increased

Q: What about the “Lowering of intracellular GSH level” value [7] of the same compound?
A: not observed

Q: Which results are given for `Cc1ccc(C(C)C)cc1.O=C1C[NH][Os]([Cl])[O]1` [Os-Gly, [(p-cymene)Os(Gly)Cl]]?
A: IC50 [2]: > 200 µM; IC50 [3]: > 200 µM; IC50 [4]: 107 ± 2 µM; IC50 [5]: > 200 µM; Progression to G2/M [6]: little progression to G2/M; Comet tails vs untreated cells [8]: statistically significantly shorter comet tails

Q: For `[NH2][Pt]([NH2])([Cl])[Cl]` [CDDP, Cisplatin, reference compound], which IC50 [2] is on record?
A: 3 ± 0.2 µM

Q: And the IC50 [3]?
A: 20 ± 4.8 µM

Q: And the IC50 [4]?
A: 13.5 ± 0.9 µM

Q: What about the “Comet tails vs untreated cells” value [8] of the same compound?
A: statistically significantly shorter comet tails

Q: Which IC50 [2] does the source give for `Cc1ccc(C(C)C)cc1.O=C1C[NH][Ru]([Cl])[O]1` [Ru-Gly, [(p-cymene)Ru(Gly)Cl]] here?
A: > 200 µM

Q: And the IC50 [3]?
A: > 200 µM

Q: What about the IC50 [4] of the same compound?
A: 112 ± 4 µM

Q: And the IC50 [5]?
A: > 200 µM

Q: What about the “Progression to G2/M” value [6] of the same compound?
A: little progression to G2/M
